Data on five compounds can be found in ChEMBL document CHEMBL1201862, “PubChem BioAssay data set” (2004).

Active and inactive are the calls of the source.

In test [1] the target is T1, Beta-lactamase (Pseudomonas aeruginosa, UniProt Q79MP6). In words: […] counterscreen for selective VIM-2 inhibitors: dose response biochemical high throughput screening assay to identify inhibitors of IMP-1 metallo-beta-lactamase.
The target in test [2] is Beta-lactamase (Salmonella choleraesuis (strain SC-B67), UniProt Q5J463). In words: Epi-absorbance-based counterscreen for selective VIM-2 inhibitors: dose response biochemical high throughput screening assay to identify inhibitors of TEM-1 serine-beta-lactamase.
Test [3] concerns the target T2, Beta Lactamase (Pseudomonas aeruginosa, UniProt Q932Y6). In words: concentration-dependent VIM-2 enzyme inhibition – biochemical, epi-absorbance readout, selective inhibitors, dose response (AID 1919).
Test [4] deals with T2, Beta Lactamase. In words: VIM-2 CCF2 hydrolysis inhibition, assay artifact filter – biochemical, FRET readout, CCF2 substrate, artefact control for selective VIM-2 inhibitor project, dose response (AID 1926).
Test [5] has as its target T1, Beta-lactamase. In words: inhibition of IMP-1 beta-lactamase activity – biochemical, epi-absorbance, selectivity assay for VIM-2 inhibitor project, dose response (AID 1920).
For test [6], the target named is Botulinum neurotoxin type F (Clostridium botulinum, UniProt P30996). In words: High-throughput multiplex microsphere dose response for inhibitors of toxin protease, specifically Botulinum neurotoxin light chain F protease, compounds from Cherry Pick 02. Conditions: read-out: EC50_MICROM. Type of test: functional.
The target of the next test is Galanin receptor type 3 (Homo sapiens, UniProt O60755). In words: Fluorescence-based cell-based primary high throughput dose response assay to identify antagonists of the Galanin Receptor 3 (GalR3). Type of test: functional.
The next test is described as follows: cells. It counts as functional, cell-based. As to conditions: HEK-CNG.
The target of test [7] is T3, COUP transcription factor 2 (Homo sapiens, UniProt P24468).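 Also: HEK293 cells transiently cotransfected with COUP-TFII expression vector and reporter; luciferase reporter luminescence driven by COUP-TFII from the pX2-168 reporter plasmid.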
T3 sequence (P24468 whole entry): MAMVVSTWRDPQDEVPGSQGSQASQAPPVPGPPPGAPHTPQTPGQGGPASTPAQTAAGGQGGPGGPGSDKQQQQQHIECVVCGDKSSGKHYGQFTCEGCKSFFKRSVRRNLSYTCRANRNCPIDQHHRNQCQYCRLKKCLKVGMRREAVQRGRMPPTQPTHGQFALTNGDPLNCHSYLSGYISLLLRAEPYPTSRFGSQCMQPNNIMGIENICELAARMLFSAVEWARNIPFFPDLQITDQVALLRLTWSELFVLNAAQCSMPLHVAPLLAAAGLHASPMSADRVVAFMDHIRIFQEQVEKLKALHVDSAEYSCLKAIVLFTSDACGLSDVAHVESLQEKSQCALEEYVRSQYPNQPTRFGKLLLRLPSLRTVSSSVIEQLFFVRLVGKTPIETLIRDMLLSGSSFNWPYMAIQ
In words: Luminescence-based cell-based high throughput dose response assay to identify inhibitors of COUP-TFII (NR2F2). It counts as functional.

Test [8] is described as follows: blockade of melanocortin 4 receptor signaling – cell-based, plate reader, cherry pick, counter-screen for LGR2 antagonist project, dose response (AID 743444).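 Also: transfected HEK 293 cells stimulated with alpha-MSH peptide; potency of inhibitors of the alpha-MSH evoked signal.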 Type of test: functional.
Test [9] can be described thus: viability loss in HEK293T cells – cell-based, cherry-picks, cytotoxicity control for HIV Vif inhibitor project, dose response (AID 652208). It counts as functional.
Test [10] is described as follows: blockers of bursicon-stimulated LGR2 cAMP reporter – cell-based, HEK293, CRE-luciferase reporter, cherry pick, set 2, dose response (AID 743343).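 Also: transfected cells were stimulated with diluted bursicon conditioned medium after compound addition.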 It counts as functional.
Test [11] is described as follows: viability loss in HEK293 cells – cell-based, plate reader, cherry-picked samples, cytotoxicity control, dose response (AID 743446). Type of test: functional.
For test [12], the target named is Beta-2 adrenergic receptor (Homo sapiens, UniProt P07550). In words: ADRB2 activation measured by internalization – cell-based, FAP fluorogen, flow cytometry, cherry pick 1, dose response (AID 588763). It counts as functional.
A short description of test [13]: Luminescence Cell-Based Dose Retest to Confirm Inhibitors of Cancer Stem Cells. [Related pubchem assays (depositor defined):AID2717, AID2721]. As to conditions: Homo sapiens. It counts as functional.
The nature of test [14]: toxicity toward HepG2 liver cells – cell-based, plate reader, cherry-pick, antagonist series, cytotoxicity control, dose response (AID 743416). Type of test: functional.
A short description of test [15]: A549 cell cytotoxicity, dose response, cytotoxicity control, plate reader, cherry-pick, antagonist series (AID 743412). Type of test: functional, cell-based.
Test [16] deals with Histone-lysine N-methyltransferase NSD2 (Homo sapiens, UniProt O96028). Type of test: biochemical.
Histone-lysine N-methyltransferase NSD2, sequence (O96028 whole entry): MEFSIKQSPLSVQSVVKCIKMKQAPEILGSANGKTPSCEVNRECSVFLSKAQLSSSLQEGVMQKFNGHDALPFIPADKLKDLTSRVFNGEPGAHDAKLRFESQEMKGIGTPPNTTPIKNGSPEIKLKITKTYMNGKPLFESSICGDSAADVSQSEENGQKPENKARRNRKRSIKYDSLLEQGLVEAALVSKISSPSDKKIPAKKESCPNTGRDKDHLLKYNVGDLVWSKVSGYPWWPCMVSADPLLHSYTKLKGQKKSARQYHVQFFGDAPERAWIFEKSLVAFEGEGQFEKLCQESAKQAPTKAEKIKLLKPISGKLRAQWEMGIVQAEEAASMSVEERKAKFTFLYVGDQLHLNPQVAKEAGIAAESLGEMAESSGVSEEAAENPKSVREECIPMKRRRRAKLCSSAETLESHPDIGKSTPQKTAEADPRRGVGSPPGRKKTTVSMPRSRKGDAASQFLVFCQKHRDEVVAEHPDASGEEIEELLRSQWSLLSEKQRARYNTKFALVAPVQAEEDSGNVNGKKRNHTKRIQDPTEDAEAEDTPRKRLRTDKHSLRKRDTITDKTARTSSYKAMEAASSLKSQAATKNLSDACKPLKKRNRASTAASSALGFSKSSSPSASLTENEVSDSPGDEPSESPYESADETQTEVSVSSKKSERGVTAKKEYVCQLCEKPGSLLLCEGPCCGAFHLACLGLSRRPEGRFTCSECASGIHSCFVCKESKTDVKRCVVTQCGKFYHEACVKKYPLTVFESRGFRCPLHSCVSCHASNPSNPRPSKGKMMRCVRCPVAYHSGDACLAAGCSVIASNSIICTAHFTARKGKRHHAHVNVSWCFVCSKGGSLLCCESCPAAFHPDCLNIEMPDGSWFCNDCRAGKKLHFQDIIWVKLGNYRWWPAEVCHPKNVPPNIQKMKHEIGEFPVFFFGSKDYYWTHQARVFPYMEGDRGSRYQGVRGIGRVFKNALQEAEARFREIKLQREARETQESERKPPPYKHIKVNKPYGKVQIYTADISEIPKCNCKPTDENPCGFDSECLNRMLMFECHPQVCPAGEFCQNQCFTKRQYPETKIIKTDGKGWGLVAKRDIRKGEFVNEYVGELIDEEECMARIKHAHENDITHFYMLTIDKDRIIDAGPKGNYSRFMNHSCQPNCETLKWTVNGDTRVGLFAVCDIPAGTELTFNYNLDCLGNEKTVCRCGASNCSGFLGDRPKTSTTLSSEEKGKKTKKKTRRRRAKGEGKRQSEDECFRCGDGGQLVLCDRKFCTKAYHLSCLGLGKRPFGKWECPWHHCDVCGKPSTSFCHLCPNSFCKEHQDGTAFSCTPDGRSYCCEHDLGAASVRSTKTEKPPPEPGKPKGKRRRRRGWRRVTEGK

T2 sequence (Q932Y6 whole entry): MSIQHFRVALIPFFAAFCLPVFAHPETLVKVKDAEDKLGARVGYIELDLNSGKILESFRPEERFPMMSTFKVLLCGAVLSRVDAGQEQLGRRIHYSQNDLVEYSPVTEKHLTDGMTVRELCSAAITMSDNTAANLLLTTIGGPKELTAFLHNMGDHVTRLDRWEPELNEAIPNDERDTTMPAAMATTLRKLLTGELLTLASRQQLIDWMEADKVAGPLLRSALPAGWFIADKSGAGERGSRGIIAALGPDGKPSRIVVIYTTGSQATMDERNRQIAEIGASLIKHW
T1 sequence (Q79MP6 whole entry): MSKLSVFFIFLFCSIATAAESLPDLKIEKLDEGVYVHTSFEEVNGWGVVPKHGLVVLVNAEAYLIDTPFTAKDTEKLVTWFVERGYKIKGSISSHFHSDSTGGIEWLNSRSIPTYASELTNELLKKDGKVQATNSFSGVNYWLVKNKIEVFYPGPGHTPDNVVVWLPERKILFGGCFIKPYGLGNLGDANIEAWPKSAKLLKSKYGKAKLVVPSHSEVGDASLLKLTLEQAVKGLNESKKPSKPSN
Beta-2 adrenergic receptor, sequence (P07550 whole entry): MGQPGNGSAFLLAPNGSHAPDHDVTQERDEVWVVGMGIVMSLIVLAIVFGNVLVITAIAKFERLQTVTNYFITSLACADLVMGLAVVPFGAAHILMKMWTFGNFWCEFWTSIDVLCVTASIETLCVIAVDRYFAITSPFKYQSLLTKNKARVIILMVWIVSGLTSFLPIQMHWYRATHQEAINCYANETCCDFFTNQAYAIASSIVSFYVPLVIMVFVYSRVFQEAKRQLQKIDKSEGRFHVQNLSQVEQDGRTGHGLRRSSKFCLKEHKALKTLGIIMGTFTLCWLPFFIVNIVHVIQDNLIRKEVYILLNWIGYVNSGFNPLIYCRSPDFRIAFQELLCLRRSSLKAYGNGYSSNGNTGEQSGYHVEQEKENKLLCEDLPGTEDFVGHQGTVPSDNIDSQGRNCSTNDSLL
Beta-lactamase (Salmonella choleraesuis (strain SC-B67), UniProt Q5J463), sequence (Q5J463 whole entry): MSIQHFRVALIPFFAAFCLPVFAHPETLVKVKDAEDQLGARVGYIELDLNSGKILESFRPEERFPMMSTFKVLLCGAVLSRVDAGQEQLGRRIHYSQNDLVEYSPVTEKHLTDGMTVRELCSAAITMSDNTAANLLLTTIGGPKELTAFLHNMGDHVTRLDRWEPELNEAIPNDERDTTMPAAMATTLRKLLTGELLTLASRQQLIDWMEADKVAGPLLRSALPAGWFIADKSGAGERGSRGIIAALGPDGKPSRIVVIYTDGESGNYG
Botulinum neurotoxin type F, sequence (P30996 1-436 limits assumed): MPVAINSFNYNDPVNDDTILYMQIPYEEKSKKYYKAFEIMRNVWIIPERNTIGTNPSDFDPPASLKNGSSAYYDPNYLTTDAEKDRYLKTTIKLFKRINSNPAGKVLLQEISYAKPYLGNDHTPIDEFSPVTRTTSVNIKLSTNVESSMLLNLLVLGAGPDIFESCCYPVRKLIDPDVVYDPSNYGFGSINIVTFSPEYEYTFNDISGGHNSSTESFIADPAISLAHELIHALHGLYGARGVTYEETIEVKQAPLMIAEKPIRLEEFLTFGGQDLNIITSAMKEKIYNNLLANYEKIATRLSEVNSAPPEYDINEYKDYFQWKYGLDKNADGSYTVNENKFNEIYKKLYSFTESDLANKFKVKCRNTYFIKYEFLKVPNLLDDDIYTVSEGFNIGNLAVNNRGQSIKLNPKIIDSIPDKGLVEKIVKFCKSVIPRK
Galanin receptor type 3, sequence (O60755 whole entry): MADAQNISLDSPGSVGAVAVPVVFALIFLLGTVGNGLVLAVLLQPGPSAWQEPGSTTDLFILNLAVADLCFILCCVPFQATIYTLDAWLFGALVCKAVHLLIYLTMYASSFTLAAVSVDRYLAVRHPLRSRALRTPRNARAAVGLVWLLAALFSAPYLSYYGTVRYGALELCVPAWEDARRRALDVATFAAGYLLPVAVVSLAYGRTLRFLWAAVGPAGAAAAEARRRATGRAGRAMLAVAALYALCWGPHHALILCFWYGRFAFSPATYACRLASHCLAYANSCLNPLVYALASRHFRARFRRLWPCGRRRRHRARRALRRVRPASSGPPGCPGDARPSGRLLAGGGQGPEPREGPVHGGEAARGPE

Take `O=C(C1=C(O)C(=O)N(Cc2cccnc2)C1c1ccccn1)c1cccs1` (stereo not drawn): the IC50 at Beta-lactamase [1] was > 59.6 µM (inactive); on Beta-lactamase [2] it was > 59.6 µM (inactive); at Beta Lactamase [3], 13.2 µM (inactive); on Beta Lactamase [4], 4.83 µM (active); on Beta-lactamase [5], > 59.6 µM (inactive).

Turning to `COc1cccc(C(=O)OCC(=O)c2c[nH]c3ccccc23)c1O`, the EC50 in test [6] is > 20 µM (inactive).

Turning to `Cc1c(Cl)cccc1NC(=O)N1CCCN(c2nc(-c3ccccc3)ns2)CC1`, the IC50 on Galanin receptor type 3 was 1.53 µM (active); in test [7] it was 13.4 µM (inactive). In addition, the EC50 in “cells” is > 29.9 µM (inactive).

With `Cn1nnnc1Sc1ncnc2scc(-c3ccc(Cl)cc3)c12`, the AC50 in test [8] is 23.2 µM (active); in [9], 11.8 µM (active); in test [10] it was 14.3 µM (active); in [11], 13.9 µM (active); in test [13] it was 3.48 µM (active); in test [14], 12.1 µM (active). Further, the half-maximal activity concentration (AC50) in test [15] is 7.88 µM (active). In test [12], the EC50 is 8.38 µM (active).

For `COc1cc(/C=C2\C(=N)N3N=C(S(C)(=O)=O)SC3=NC2=O)ccc1OC(=O)c1cccs1`, the AC50 in test [16] is > 20 µM (inactive).
